According to patent publication US7786079B2, “Substituted nonadepsipeptides” (priority 2004, dated 2010):
*1 amine or outer side, *2 acyl side, *3 side chain or, on linkers, in order; H or OH if unused. Where a SMILES comes first, the peptide text is derived from it. Bridges are numbered along the chain shown (N, C = ends). Side-chain parts run from the residue outwards. [ ]: non-standard residue; d: D form. The star is where a group is joined. X1 = NC(=O)[C@@H](OC(=O)c1ccc(N2CCOCC2)nc1)[C@H](N[*:1])C(=O)[*:2]; Phe(3R-OH) = O=C([C@@H](N[*:1])[C@H](O[*:3])c1ccccc1)[*:2]; X2 = NC(=O)[C@@H](OC(=O)Nc1ccccc1)[C@H](N[*:1])C(=O)[*:2]; NH(4-morpholinophenyl) = c1cc(N2CCOCC2)ccc1N*; Asn(3S-OH) = NC(=O)[C@@H](O)[C@H](N)C(=O)O; Leu(3R-OH) = CC(C)[C@@H](O)[C@H](N)C(=O)O; aThr = C[C@H](O)[C@H](N)C(=O)O; CO = O=C([*:1])[*:2]

Columns and labels:
[1] = tested on: E. faecalis ICB 27159; assay type: cell-based, Entercococcus faecalis
Procedure: (§1) Determination of the Minimum Inhibitory Concentration (MIC): The MIC is determined in the liquid dilution test in accordance with the NCCLS guidelines. […] The cultures are incubated at 37° C. for 18-24 hours, S. pneumoniae in the presence of 10% CO2. The lowest substance concentration in each case at which no visible bacterial growth occurs any more is defined as the MIC. The MIC values are reported in μg/ml.

[2] = tested on: E. faecium L4001; assay type: cell-based
Procedure: as §1

[3] = tested on: Staphylococcus aureus 133; assay type: cell-based
Procedure: as §1

[4] = tested on: Streptococcus pneumoniae G9a; assay type: cell-based
Procedure: as §1

| Compound | MIC E. faecalis ICB 27159 [1] [µg/mL] | MIC E. faecium L4001 [2] [µg/mL] | MIC S. aureus 133 [3] [µg/mL] | MIC S. pneumoniae G9a [4] [µg/mL] |
| --- | --- | --- | --- | --- |
| CC[C@H](C)[C@@H]1NC(=O)[C@@H](CCCNC(=N)N)NC(=O)[C@H](CC(C)C)NC(=O)[C@H]([C@H](O)C(C)C)NC(=O)[C@@H](NC(=O)[C@H](CC(C)C)NC(=O)[C@H](N)CC(C)C)[C@@H](c2ccccc2)OC(=O)[C@H](CO)NC(=O)[C@H]([C@H](OC(=O)Nc2ccccc2)C(N)=O)NC(=O)CNC(=O)[C@H]([C@H](C)O)NC1=O.O=C(O)C(F)(F)F.O=C(O)C(F)(F)F [Example 2] (H-[dL]L[Phe(3R-OH)][Leu(3R-OH)]L[dR]I[aThr]G[X2]S; ester 3-C) | 1 | 4 | 0.5 | 1 |
| CC[C@H](C)[C@@H]1NC(=O)[C@@H](CCCNC(=N)NC(=O)Nc2ccc(N3CCOCC3)cc2)NC(=O)[C@H](CC(C)C)NC(=O)[C@H]([C@H](O)C(C)C)NC(=O)[C@@H](NC(=O)[C@H](CC(C)C)NC(=O)[C@H](N)CC(C)C)[C@@H](c2ccccc2)OC(=O)[C@H](CO)NC(=O)[C@H]([C@H](O)C(N)=O)NC(=O)CNC(=O)[C@H]([C@H](C)O)NC1=O.O=C(O)C(F)(F)F [Example 11] (H-[dL]L[Phe(3R-OH)][Leu(3R-OH)]L[dR]([CO-NH(4-morpholinophenyl)])I[aThr]G[Asn(3S-OH)]S; ester 3-C) | 0.5 | 1 | 0.5 | 0.5 |
| CC[C@H](C)[C@@H]1NC(=O)[C@@H](CCCNC(=N)N)NC(=O)[C@H](CC(C)C)NC(=O)[C@H]([C@H](O)C(C)C)NC(=O)[C@@H](NC(=O)[C@H](CC(C)C)NC(=O)[C@H](N)CC(C)C)[C@@H](c2ccccc2)OC(=O)[C@H](CO)NC(=O)[C@H]([C@H](OC(=O)c2ccc(N3CCOCC3)nc2)C(N)=O)NC(=O)CNC(=O)[C@H]([C@H](C)O)NC1=O.O=C(O)C(F)(F)F.O=C(O)C(F)(F)F [Example 17] (H-[dL]L[Phe(3R-OH)][Leu(3R-OH)]L[dR]I[aThr]G[X1]S; ester 3-C) | 2 | 4 | 0.5 | 0.5 |
